The subject of assay [1] is rat liver ACAT (acylCoa:cholesterol acyltransferase). The experiment in a line: In vitro inhibition of ACAT activity, rat liver microsomal fraction. It is filed as biochemical. The conditions noted are these: rat liver microsomes, concentration 2 μM, versus enzyme activity in 1% dimethylsulfoxide. The method, then: (§1) The biological activity of the substances was evaluated based on the in vitro inhibition of acylCoa:cholesterol acyltransferase (ACAT) activity. The enzyme was obtained from the microsomal fraction of rat liver cells and rabbit intestinal mucosa of animals fed with cholesterol. The substrates for the enzyme reaction included exogenous oleoyl co-enzyme A and endogenous cholesterol. ^14C-oleoyl co-enzyme A conversion to ^14C-cholesteryl oleate was monitored. From the mixture of extracted lipids, cholesteryl oleate was separated using thin-layer chromatography, and was quantified radiometrically. ACAT specific activity was expressed as the amount of cholesteryl oleate formed per minute per mg microsomal protein.
(§2) Efficiency was calculated as compared to enzyme activity measured in the presence of 1% dimethylsulfoxide used as the solvent to prepare solutions of the substances tested.
A general note: Liver microsomes are vesicles of endoplasmic reticulum, rich in cytochrome P450 enzymes.

Assay [2] deals with rabbit intestinal mucosa ACAT (acylCoa:cholesterol acyltransferase). The experiment in a line: In vitro inhibition of ACAT activity, rabbit intestinal mucosa microsomal fraction. The conditions noted are these: rabbit intestinal mucosa microsomes, concentration 2 μM, versus enzyme activity in 1% dimethylsulfoxide. It is filed as biochemical. The method, then: as §1, §2

The text below walks through data of patent US6444691B1, “1,3-disubstituted ureas as ACAT inhibitors, and method of preparing thereof” (Solvakofarma, a.s., priority 1997, dated 2002).

For the compound `O=C(Nc1ccc(Sc2ccc([N+](=O)[O-])cc2)cc1)Nc1ccc(C(F)(F)F)cc1` [Example 45, 1-(4-Trifluoromethylphenyl)-3-((4′-nitrophenylthio)-phenyl)-urea], in assay [1], the “Efficiency (%) liver (ACAT inhibition)” value worked out at 23%. The “Efficiency (%) mucosa (ACAT inhibition)” value in assay [2] is on record as 25%.

For the compound “1-(3-Trifluoromethylphenyl)-3-((4′-nitrophenylthio)-phenyl)-urea [Example 44]”, the “Efficiency (%) liver (ACAT inhibition)” value in assay [1] is given as 34%. For the same compound, the “Efficiency (%) mucosa (ACAT inhibition)” value in assay [2] is reported as 45%.

For the compound `O=C(Nc1ccc(Sc2ccc([N+](=O)[O-])cc2)cc1)Nc1ccc2ccccc2c1` [Example 50, 1-(2-Naphthyl)-3-((4′-nitrophenylthio)-phenyl)-urea], the “Efficiency (%) liver (ACAT inhibition)” value in assay [1] is on record as 16%. Besides, in assay [2], the “Efficiency (%) mucosa (ACAT inhibition)” value was 31%.

`O=C(Nc1ccc(Cl)cc1)Nc1ccc(Sc2ccc([N+](=O)[O-])cc2)cc1` [Example 31, 1-(4-Chlorophenyl)-3-((4′-nitrophenylthio)-phenyl)-urea]: in assay [1], the “Efficiency (%) liver (ACAT inhibition)” value was determined as 12%. In addition, in assay [2], the “Efficiency (%) mucosa (ACAT inhibition)” value is recorded as 21%.

With `O=C(Nc1ccc(Oc2ccc([N+](=O)[O-])cc2)cc1)Nc1c(Cl)cccc1Cl` [Example 7, 1-(2,6-Dichlorophenyl)-3-((4′-nitrophenoxy)-phenyl)-urea], in assay [1], the “Efficiency (%) liver (ACAT inhibition)” value is 20%. In addition, the “Efficiency (%) mucosa (ACAT inhibition)” value in assay [2] is listed as 25%.

As for `Cc1ccccc1NC(=O)Nc1ccc(Oc2ccc([N+](=O)[O-])cc2)cc1` [Example 9], in assay [1], the “Efficiency (%) liver (ACAT inhibition)” value is on record as 0%. Further, the “Efficiency (%) mucosa (ACAT inhibition)” value in assay [2] came to 0%.

As for `Nc1ccc(Oc2ccc(NC(=O)Nc3cccc(Cl)c3Cl)cc2)cc1` [Example 53, 1-(2,3-Dichlorophenyl)-3-((4′-aminophenoxy)-phenyl)-urea], the “Efficiency (%) liver (ACAT inhibition)” value in assay [1] was 55%. In addition, the “Efficiency (%) mucosa (ACAT inhibition)” value in assay [2] was 46%.

Turning to “1-(2,4-Dimethylphenyl)-3-((4′-nitrophenylthio)-phenyl)-urea [Example 39]”, the “Efficiency (%) liver (ACAT inhibition)” value in assay [1] was 19%. Moreover, in assay [2], the “Efficiency (%) mucosa (ACAT inhibition)” value is 31%.

On to `O=C(Nc1ccc(Sc2ccc([N+](=O)[O-])cc2)cc1)Nc1ccc(Cl)c(Cl)c1` [Example 35, 1-(3,4-Dichlorophenyl)-3-((4′-nitrophenylthio)-phenyl)-urea], for which the “Efficiency (%) liver (ACAT inhibition)” value in assay [1] stood at 0%. Further, the “Efficiency (%) mucosa (ACAT inhibition)” value in assay [2] came to 20%.

For `O=C(Nc1ccc(Sc2ccc([N+](=O)[O-])cc2)cc1)Nc1ccc(F)cc1F` [Example 27, 1-(2,4-Difluorophenyl)-3-((4′-nitrophenylthio)-phenyl)-urea], in assay [1], the “Efficiency (%) liver (ACAT inhibition)” value is listed as 16%. The “Efficiency (%) mucosa (ACAT inhibition)” value in assay [2] is on record as 23%.

For the compound `O=C(Nc1ccc(Oc2ccc([N+](=O)[O-])cc2)cc1)Nc1ccccn1` [Example 18], the “Efficiency (%) liver (ACAT inhibition)” value in assay [1] worked out at 26%. For the same compound, the “Efficiency (%) mucosa (ACAT inhibition)” value in assay [2] stood at 34%.

On to `Cc1ccc(NC(=O)Nc2ccc(Oc3ccc([N+](=O)[O-])cc3)cc2)cc1` [Example 10, 1-(4-Methylphenyl)-3-((4′-nitrophenoxy)-phenyl)-urea], for which, in assay [1], the “Efficiency (%) liver (ACAT inhibition)” value is 0%. Besides, the “Efficiency (%) mucosa (ACAT inhibition)” value in assay [2] was 0%.

With `O=C(Nc1ccc(Oc2ccc([N+](=O)[O-])cc2)cc1)Nc1ccccc1F` [Example 1, 1-(2-Fluorophenyl)-3-((4′-nitrophenoxy)-phenyl)-urea], the “Efficiency (%) liver (ACAT inhibition)” value in assay [1] is 15%. For the same compound, the “Efficiency (%) mucosa (ACAT inhibition)” value in assay [2] came out at 32%.

For `O=C(Nc1ccc(Sc2ccc([N+](=O)[O-])cc2)cc1)Nc1c(F)cccc1F` [Example 29, 1-(2,6-Difluorophenyl)-3-((4′-nitrophenylthio)-phenyl)-urea], the “Efficiency (%) liver (ACAT inhibition)” value in assay [1] was determined as 11%. The “Efficiency (%) mucosa (ACAT inhibition)” value in assay [2] was found to be 25%.

As for `Cc1cccc(C)c1NC(=O)Nc1ccc(Oc2ccc(N)cc2)cc1` [Example 54, 1-(2,6-Dimethylphenyl)-3-((4′-aminophenoxy)-phenyl)-urea], in assay [1], the “Efficiency (%) liver (ACAT inhibition)” value came out at 38%. Besides, the “Efficiency (%) mucosa (ACAT inhibition)” value in assay [2] is given as 62%.

As to `Cc1cccc(C)c1NC(=O)Nc1ccc(Oc2ccc([N+](=O)[O-])cc2)cc1` [Example 12, 1-(2,6-Dimethylphenyl)-3-((4′-nitrophenoxy)-phenyl)-urea], the “Efficiency (%) liver (ACAT inhibition)” value in assay [1] is given as 41%. The “Efficiency (%) mucosa (ACAT inhibition)” value in assay [2] came out at 65%.

`Nc1ccc(Sc2ccc(NC(=O)Nc3cccc(Cl)c3Cl)cc2)cc1` [Example 57, 1-(2,3-Dichlorophenyl)-3-((4′-aminophenylthio)-phenyl)-urea]: the “Efficiency (%) liver (ACAT inhibition)” value in assay [1] came out at 15%. Moreover, in assay [2], the “Efficiency (%) mucosa (ACAT inhibition)” value was found to be 26%.

On to `O=C(Nc1ccc(Oc2ccc([N+](=O)[O-])cc2)cc1)Nc1cccc2ccccc12` [Example 21], for which, in assay [1], the “Efficiency (%) liver (ACAT inhibition)” value stood at 14%. For the same compound, in assay [2], the “Efficiency (%) mucosa (ACAT inhibition)” value was 22%.

Consider `O=C(Nc1ccc(Oc2ccc([N+](=O)[O-])cc2)cc1)Nc1c(F)cccc1F` [Example 4, 1-(2,6-Difluorophenyl)-3-((4′-nitrophenoxy)-phenyl)-urea], for which the “Efficiency (%) liver (ACAT inhibition)” value in assay [1] was 0%. The “Efficiency (%) mucosa (ACAT inhibition)” value in assay [2] turned out to be 42%.

Turning to `CC(C)c1cccc(C(C)C)c1NC(=O)Nc1ccc(Oc2ccc(N)cc2)cc1` [Example 55, 1-(2,6-Di(methylethyl)-phenyl)-3-((4′-aminophenoxy)-phenyl)-urea], the “Efficiency (%) liver (ACAT inhibition)” value in assay [1] is 68%. In addition, the “Efficiency (%) mucosa (ACAT inhibition)” value in assay [2] was 64%.

For the compound `O=C(Nc1ccc(Sc2ccc([N+](=O)[O-])cc2)cc1)Nc1ccccc1C(F)(F)F` [Example 43, 1-(2-Trifluoromethylphenyl)-3-((4′-nitrophenylthio)-phenyl)-urea], the “Efficiency (%) liver (ACAT inhibition)” value in assay [1] turned out to be 25%. Further, the “Efficiency (%) mucosa (ACAT inhibition)” value in assay [2] is listed as 38%.

Consider `O=C(Nc1ccc(Oc2ccc([N+](=O)[O-])cc2)cc1)Nc1ccc2ccccc2c1` [Example 22], for which the “Efficiency (%) liver (ACAT inhibition)” value in assay [1] is listed as 0%. Also, the “Efficiency (%) mucosa (ACAT inhibition)” value in assay [2] was 12%.

Regarding `Cc1ccc(NC(=O)Nc2ccc(Oc3ccc([N+](=O)[O-])cc3)cc2)c(C)c1` [Example 11, 1-(2,4-Dimethylphenyl)-3-((4′-nitrophenoxy)-phenyl)-urea], the “Efficiency (%) liver (ACAT inhibition)” value in assay [1] is on record as 0%. Further, the “Efficiency (%) mucosa (ACAT inhibition)” value in assay [2] stood at 0%.

`Cc1ccccc1NC(=O)Nc1ccc(Sc2ccc([N+](=O)[O-])cc2)cc1` [Example 37, 1-(2-Methylphenyl)-3-((4′-nitrophenylthio)-phenyl)-urea]: the “Efficiency (%) liver (ACAT inhibition)” value in assay [1] came out at 27%. The “Efficiency (%) mucosa (ACAT inhibition)” value in assay [2] worked out at 31%.

On to “1-(2,6-Dimethylphenyl)-3-((4′-nitrophenylthio)-phenyl)-urea [Example 40]”, for which the “Efficiency (%) liver (ACAT inhibition)” value in assay [1] came to 23%. Further, in assay [2], the “Efficiency (%) mucosa (ACAT inhibition)” value stood at 34%.

Turning to `O=C(Nc1ccc(Oc2ccc([N+](=O)[O-])cc2)cc1)Nc1cccc(C(F)(F)F)c1` [Example 16, 1-(3-Trifluoromethylphenyl)-3-((4′-nitrophenoxy)-phenyl)-urea], the “Efficiency (%) liver (ACAT inhibition)” value in assay [1] came out at 38%. Also, the “Efficiency (%) mucosa (ACAT inhibition)” value in assay [2] is 45%.

Consider `O=C(Nc1ccc(Sc2ccc([N+](=O)[O-])cc2)cc1)Nc1cc(Cl)cc(Cl)c1` [Example 36, 1-(3,5-Dichlorophenyl)-3-((4′-nitrophenylthio)-phenyl)-urea], for which the “Efficiency (%) liver (ACAT inhibition)” value in assay [1] was 0%. The “Efficiency (%) mucosa (ACAT inhibition)” value in assay [2] worked out at 0%.

Turning to `O=C(Nc1ccc(Sc2ccc([N+](=O)[O-])cc2)cc1)Nc1ccccn1` [Example 46, 1-(2-Pyridyl)-3-((4′-nitrophenylthio)-phenyl)-urea], in assay [1], the “Efficiency (%) liver (ACAT inhibition)” value was 48%. In addition, the “Efficiency (%) mucosa (ACAT inhibition)” value in assay [2] is reported as 46%.

As for `Cc1cccc(C)c1NC(=O)Nc1ccc(Sc2ccc(N)cc2)cc1` [Example 58, 1-(2,6-Dimethylphenyl)-3-((4′-aminophenylthio)-phenyl)-urea], in assay [1], the “Efficiency (%) liver (ACAT inhibition)” value turned out to be 21%. In addition, the “Efficiency (%) mucosa (ACAT inhibition)” value in assay [2] came out at 29%.

In the case of `O=C(Nc1ccc(Sc2ccc([N+](=O)[O-])cc2)cc1)Nc1ccccc1F` [Example 25, 1-(2-Fluorophenyl)-3-((4′-nitrophenylthio)-phenyl)-urea], the “Efficiency (%) liver (ACAT inhibition)” value in assay [1] is 0%. Besides, the “Efficiency (%) mucosa (ACAT inhibition)” value in assay [2] is 23%.

Turning to `O=C(Nc1ccc(Oc2ccc([N+](=O)[O-])cc2)cc1)Nc1cccnc1` [Example 19], the “Efficiency (%) liver (ACAT inhibition)” value in assay [1] came to 0%. Further, in assay [2], the “Efficiency (%) mucosa (ACAT inhibition)” value is recorded as 0%.

Consider `Cc1cc(C)cc(NC(=O)Nc2ccc(Sc3ccc([N+](=O)[O-])cc3)cc2)c1` [Example 41, 1-(3,5-Dimethylphenyl)-3-((4′-nitrophenylthio)-phenyl)-urea], for which, in assay [1], the “Efficiency (%) liver (ACAT inhibition)” value is recorded as 18%. The “Efficiency (%) mucosa (ACAT inhibition)” value in assay [2] was 27%.

`O=C(Nc1ccc(Sc2ccc([N+](=O)[O-])cc2)cc1)Nc1cccc(Cl)c1Cl` [Example 32, 1-(2,3-Dichlorophenyl)-3-((4′-nitrophenylthio)-phenyl)-urea]: the “Efficiency (%) liver (ACAT inhibition)” value in assay [1] is listed as 0%. The “Efficiency (%) mucosa (ACAT inhibition)” value in assay [2] is 0%.
